Calls of active or inactive are those of the source. The rule behind the calls is not given here.
Experiments:
[1] = molecular target: T1, Epithelial discoidin domain-containing receptor 1 (Homo sapiens, UniProt Q08345); assay: Inhibition of recombinant human GST-tagged DDR1 catalytic domain expressed in baculovirus expression system using Fluorescein-Poly GAT as substrate measured after 1 hr by TR-FRET assay
[2] = molecular target: Mast/stem cell growth factor receptor Kit (Homo sapiens, UniProt P10721); assay: Inhibition of recombinant human His-tagged c-kit cytoplasmic domain (544 to 976 residues) expressed in baculovirus expression system using […] as substrate measured after 1 hr by FRET-based Z'-Lyte assay
Bcr/Abl fusion protein = Bcr/Abl fusion protein (Homo sapiens, UniProt P00519); assay: Inhibition of recombinant human full length His-tagged Bcr-Abl fusion protein cytoplasmic domain expressed in baculovirus expression system using tyrosine-2 as substrate measured after 1 hr by FRET-based Z'-Lyte assay
[3] = molecular target: T2, Discoidin domain-containing receptor 2 (Homo sapiens, UniProt Q16832); assay: Inhibition of recombinant human GST-tagged DDR2 cytoplasmic domain expressed in baculovirus expression system using Fluorescein-Poly GAT as substrate measured after 1 hr by TR-FRET assay
T2 sequence (Q16832 whole entry): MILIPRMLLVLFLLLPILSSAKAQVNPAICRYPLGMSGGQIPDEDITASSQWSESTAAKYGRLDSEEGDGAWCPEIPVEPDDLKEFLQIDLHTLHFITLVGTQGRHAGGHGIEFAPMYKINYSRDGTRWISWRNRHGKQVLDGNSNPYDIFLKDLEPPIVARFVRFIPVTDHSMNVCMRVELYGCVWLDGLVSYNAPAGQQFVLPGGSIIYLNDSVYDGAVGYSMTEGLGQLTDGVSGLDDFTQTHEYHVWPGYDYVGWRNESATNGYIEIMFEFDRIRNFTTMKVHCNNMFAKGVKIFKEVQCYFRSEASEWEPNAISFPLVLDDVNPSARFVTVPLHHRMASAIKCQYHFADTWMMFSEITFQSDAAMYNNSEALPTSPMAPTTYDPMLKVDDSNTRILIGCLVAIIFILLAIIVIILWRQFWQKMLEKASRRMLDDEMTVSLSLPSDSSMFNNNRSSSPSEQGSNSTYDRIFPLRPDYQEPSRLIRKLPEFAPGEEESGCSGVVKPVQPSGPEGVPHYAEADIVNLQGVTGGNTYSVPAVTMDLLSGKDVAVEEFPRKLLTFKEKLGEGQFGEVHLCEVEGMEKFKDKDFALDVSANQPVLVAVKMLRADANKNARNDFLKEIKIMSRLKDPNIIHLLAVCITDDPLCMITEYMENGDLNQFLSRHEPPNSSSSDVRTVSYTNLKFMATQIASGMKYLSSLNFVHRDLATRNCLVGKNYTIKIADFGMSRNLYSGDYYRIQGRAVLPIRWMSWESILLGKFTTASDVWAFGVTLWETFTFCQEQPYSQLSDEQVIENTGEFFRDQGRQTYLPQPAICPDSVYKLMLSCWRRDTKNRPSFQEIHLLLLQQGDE

Mus musculus [4] = assay: Anti-inflammatory activity in LPS-induced C57BL/6 mouse acute lung injury model assessed as reduction in lung wet/dry ratio at 20 to 40 mg/kg, po bid pretreated for 7 days followed by LPS challenge measured after 6 hrs; type: functional, organism-based
Mus musculus [5] = assay: Anti-inflammatory activity in po dosed LPS-induced C57BL/6 mouse acute lung injury model assessed as reduction in total protein concentration in bronchoalveolar lavage fluid pretreated for 7 days followed by LPS challenge measured after 6 hrs; type: functional, organism-based
Mus musculus [6] = assay: Anti-inflammatory activity in po dosed LPS-induced C57BL/6 mouse acute lung injury model assessed as reduction in total number of cells in bronchoalveolar lavage fluid pretreated for 7 days followed by LPS challenge measured after 6 hrs by cell counter; type: functional, organism-based
[7] = molecular target: BDNF/NT-3 growth factors receptor (Homo sapiens) (UniProt Q16620); assay: Binding affinity to human DNA-tagged TrkB measured after 1 hr by quantitative PCR analysis
Mus musculus [8] = assay: Anti-inflammatory activity in LPS-induced C57BL/6 mouse acute lung injury model assessed as reduction in pathological changes at 20 to 40 mg/kg, po bid pretreated for 7 days followed LPS challenge measured after 6 hrs hematoxylin and eosin staining based microscopy; type: functional, organism-based
[9] = molecular target: T1, Epithelial discoidin domain-containing receptor 1; assay: Binding affinity to human DNA-tagged DDR1 expressed in bacterial expression system measured after 1 hr by quantitative PCR analysis
[10] = molecular target: T1, Epithelial discoidin domain-containing receptor 1; details: 1 uM
Peritoneal macrophage [11] = assay: Anti-inflammatory activity in C57BL/6 mouse primary peritoneal macrophages assessed as inhibition of LPS-induced IL-6 production by ELISA method; type: functional, cell-based
[12] = molecular target: NT-3 growth factor receptor (Homo sapiens) (UniProt Q16288); assay: Binding affinity to human DNA-tagged TrkC measured after 1 hr by quantitative PCR analysis
Peritoneal macrophage [13] = assay: Anti-inflammatory activity in C57BL/6 mouse primary peritoneal macrophages assessed as inhibition of LPS-induced TNF-alpha production by ELISA method; type: functional, cell-based

T1 sequence (Q08345 whole entry, the tested form may be a part): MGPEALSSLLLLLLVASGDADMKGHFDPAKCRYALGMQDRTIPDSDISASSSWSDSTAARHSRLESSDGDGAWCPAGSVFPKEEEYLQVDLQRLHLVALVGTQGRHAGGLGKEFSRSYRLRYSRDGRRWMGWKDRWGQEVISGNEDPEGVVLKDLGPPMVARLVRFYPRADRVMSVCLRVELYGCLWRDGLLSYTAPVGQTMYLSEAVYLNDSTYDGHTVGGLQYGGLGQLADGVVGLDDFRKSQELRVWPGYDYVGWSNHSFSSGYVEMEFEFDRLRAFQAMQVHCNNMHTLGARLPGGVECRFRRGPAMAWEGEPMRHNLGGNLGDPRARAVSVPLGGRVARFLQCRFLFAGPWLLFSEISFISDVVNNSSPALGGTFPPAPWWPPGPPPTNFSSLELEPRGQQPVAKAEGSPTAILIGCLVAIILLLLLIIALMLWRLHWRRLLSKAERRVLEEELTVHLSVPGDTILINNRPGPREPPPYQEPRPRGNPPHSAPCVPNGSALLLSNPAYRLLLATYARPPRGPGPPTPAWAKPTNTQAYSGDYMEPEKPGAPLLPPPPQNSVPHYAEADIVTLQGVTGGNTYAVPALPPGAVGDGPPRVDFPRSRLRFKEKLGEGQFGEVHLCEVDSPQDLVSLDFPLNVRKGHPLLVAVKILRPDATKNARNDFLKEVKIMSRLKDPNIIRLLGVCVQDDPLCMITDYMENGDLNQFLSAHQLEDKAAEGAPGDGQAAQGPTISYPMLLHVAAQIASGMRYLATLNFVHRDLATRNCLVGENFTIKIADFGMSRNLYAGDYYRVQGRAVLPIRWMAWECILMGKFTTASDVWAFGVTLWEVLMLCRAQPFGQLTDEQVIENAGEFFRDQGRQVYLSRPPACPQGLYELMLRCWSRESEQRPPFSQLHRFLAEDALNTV
Chain of Bcr/Abl fusion protein (P00519 whole entry, the tested form may be a part): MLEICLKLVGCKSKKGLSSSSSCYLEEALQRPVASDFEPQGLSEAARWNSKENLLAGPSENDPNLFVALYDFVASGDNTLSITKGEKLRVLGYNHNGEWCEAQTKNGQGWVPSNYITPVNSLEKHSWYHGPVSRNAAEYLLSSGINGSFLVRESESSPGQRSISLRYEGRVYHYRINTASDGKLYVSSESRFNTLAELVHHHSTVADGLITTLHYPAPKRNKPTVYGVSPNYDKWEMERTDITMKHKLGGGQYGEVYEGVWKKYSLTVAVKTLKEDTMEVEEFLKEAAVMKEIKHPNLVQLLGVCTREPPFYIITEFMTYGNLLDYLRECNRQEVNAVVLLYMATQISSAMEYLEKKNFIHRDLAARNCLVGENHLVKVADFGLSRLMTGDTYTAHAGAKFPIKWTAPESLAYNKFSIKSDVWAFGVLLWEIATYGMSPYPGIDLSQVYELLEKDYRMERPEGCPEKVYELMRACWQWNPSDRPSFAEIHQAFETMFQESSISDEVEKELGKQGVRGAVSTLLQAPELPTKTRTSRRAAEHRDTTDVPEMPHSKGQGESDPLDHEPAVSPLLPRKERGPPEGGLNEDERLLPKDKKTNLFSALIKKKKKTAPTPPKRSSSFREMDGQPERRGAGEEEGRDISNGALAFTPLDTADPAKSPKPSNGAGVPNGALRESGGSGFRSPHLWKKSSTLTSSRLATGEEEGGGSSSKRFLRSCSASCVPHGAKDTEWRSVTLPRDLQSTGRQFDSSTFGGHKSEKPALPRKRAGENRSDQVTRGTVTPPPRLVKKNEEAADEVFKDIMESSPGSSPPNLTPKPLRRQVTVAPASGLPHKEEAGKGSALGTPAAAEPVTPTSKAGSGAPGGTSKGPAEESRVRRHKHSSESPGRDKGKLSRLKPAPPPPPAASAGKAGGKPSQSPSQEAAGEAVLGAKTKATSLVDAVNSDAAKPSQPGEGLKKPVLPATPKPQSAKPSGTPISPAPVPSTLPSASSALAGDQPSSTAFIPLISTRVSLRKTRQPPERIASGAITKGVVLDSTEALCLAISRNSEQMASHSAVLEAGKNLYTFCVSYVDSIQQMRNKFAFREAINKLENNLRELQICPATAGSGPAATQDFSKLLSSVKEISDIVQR
Chain of Bcr/Abl fusion protein (P11274 whole entry, further chain, the tested form may be a part): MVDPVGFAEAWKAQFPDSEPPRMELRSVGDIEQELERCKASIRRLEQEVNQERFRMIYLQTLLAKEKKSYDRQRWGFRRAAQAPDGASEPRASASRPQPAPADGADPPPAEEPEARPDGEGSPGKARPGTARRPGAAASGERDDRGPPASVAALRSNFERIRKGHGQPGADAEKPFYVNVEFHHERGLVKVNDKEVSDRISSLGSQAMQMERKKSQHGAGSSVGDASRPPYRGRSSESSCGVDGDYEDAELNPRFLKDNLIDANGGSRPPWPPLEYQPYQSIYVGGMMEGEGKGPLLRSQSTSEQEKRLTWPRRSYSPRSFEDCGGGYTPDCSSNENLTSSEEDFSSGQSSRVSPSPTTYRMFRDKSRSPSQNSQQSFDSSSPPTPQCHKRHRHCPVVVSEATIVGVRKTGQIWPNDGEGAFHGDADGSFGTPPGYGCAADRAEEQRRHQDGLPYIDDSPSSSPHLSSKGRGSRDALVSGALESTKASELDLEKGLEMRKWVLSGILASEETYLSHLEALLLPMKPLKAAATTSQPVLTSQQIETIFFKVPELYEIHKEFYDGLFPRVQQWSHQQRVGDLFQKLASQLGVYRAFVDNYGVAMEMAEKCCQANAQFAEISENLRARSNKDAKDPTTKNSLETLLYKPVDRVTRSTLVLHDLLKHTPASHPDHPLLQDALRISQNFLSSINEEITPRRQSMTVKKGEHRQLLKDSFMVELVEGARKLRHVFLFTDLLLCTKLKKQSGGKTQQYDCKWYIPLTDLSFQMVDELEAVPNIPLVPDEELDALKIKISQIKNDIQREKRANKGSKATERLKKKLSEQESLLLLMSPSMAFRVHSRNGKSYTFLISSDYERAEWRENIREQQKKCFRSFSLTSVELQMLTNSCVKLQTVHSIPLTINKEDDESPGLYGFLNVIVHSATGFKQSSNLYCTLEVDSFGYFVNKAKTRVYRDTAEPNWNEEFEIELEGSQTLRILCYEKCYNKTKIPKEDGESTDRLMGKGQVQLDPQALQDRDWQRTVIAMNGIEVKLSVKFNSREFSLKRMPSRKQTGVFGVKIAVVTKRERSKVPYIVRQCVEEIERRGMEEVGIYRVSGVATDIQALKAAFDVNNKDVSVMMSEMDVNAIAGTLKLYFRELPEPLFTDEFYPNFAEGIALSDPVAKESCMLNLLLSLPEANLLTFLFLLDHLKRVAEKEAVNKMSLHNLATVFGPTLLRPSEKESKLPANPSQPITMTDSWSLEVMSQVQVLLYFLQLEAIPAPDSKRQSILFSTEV
Chain of Mast/stem cell growth factor receptor Kit (P10721 whole entry, the tested form may be a part): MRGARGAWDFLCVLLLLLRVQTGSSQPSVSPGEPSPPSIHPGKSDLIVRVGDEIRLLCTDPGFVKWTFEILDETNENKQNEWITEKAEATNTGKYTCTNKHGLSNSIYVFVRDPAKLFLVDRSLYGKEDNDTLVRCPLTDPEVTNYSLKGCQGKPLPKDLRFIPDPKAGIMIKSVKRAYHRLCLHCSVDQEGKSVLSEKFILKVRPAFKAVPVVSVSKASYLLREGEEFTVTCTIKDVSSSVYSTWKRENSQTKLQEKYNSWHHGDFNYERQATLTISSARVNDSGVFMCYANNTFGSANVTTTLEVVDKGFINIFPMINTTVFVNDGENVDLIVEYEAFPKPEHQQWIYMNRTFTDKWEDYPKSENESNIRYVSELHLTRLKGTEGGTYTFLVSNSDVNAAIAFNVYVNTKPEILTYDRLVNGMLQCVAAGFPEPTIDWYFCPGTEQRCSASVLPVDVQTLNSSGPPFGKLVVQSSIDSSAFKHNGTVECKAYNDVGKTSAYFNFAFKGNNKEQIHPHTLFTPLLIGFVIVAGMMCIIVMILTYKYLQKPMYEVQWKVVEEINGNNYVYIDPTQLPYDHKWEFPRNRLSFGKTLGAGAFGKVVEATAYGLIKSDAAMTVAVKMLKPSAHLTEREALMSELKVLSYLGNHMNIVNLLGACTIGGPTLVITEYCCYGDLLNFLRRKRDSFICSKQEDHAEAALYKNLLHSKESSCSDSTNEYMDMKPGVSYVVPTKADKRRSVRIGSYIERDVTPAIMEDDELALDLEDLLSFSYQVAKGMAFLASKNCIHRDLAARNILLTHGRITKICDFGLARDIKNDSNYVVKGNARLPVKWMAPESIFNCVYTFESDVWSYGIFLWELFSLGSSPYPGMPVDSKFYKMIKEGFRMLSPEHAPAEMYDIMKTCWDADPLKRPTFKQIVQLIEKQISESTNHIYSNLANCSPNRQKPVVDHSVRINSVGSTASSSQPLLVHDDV
Chain of BDNF/NT-3 growth factors receptor (Homo sapiens) (Q16620 32-822 limits assumed): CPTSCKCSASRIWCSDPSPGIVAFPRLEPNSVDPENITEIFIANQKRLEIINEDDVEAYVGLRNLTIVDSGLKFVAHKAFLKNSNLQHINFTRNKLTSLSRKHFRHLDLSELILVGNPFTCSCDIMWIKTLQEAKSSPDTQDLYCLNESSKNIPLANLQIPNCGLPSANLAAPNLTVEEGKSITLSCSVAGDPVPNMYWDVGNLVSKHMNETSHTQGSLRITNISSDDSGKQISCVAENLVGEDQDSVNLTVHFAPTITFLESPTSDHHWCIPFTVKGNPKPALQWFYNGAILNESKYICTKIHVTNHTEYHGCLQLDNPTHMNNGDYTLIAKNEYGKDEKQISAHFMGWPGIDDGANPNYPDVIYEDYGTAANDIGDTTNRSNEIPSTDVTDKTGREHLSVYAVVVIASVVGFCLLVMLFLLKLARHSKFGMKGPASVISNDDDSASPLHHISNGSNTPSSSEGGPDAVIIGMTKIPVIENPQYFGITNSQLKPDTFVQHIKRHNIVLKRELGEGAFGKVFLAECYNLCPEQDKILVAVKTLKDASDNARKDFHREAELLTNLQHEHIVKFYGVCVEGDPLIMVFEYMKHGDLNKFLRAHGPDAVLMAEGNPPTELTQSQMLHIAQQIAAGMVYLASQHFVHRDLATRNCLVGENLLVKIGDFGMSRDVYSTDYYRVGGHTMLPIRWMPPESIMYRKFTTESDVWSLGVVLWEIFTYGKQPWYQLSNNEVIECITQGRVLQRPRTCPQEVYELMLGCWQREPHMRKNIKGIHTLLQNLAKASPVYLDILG

| Structure (SMILES) | IC50 [1] [µM] | IC50 [2] [µM] | IC50 (Bcr/Abl fusion protein) [µM] | IC50 [3] [µM] | other results |
| --- | --- | --- | --- | --- | --- |
| C[C@@H]1CN(c2cncnc2)Cc2cc(C(=O)Nc3cc(CN4CCCN(C)CC4)cc(C(F)(F)F)c3)ccc21 | 0.167 | > 10 | > 10 | 2.6 | – |
| CC1CN(c2cncnc2)Cc2cc(C(=O)Nc3cc(C(F)(F)F)ccc3CN3CCN(C)CC3)ccc21 (stereo unspecified) | 10 | > 10 | > 10 | > 10 | – |
| C[C@H]1CN(c2cncnc2)Cc2cc(C(=O)Nc3cc(CN4CCN(C)CC4)cc(C(F)(F)F)c3)ccc21 | – | > 10 | – | – | – |
| CN1CCN(Cc2cc(NC(=O)c3ccc4c(c3)CN(c3cncnc3)CC4(C)C)cc(C(F)(F)F)c2)CC1 | – | > 10 | > 10 | – | – |
| CCN1CCN(Cc2cc(NC(=O)c3ccc4c(c3)CN(c3cncnc3)CC4C)cc(C(F)(F)F)c2)CC1 (stereo unspecified) | 0.0711 | > 10 | > 10 | 0.944 | – |
| CCc1ccc(C(=O)Nc2cc(CN3CCN(C)CC3)cc(C(F)(F)F)c2)cc1C#Cc1ccc2ccnn2c1 | 0.0131 | 2.5 | 0.414 | 0.203 | – |
| CC1CN(c2cncnc2)Cc2cc(C(=O)Nc3cc(CN4CCOCC4)cc(C(F)(F)F)c3)ccc21 (stereo unspecified) | – | > 10 | > 10 | – | – |
| CN1CCN(Cc2cc(NC(=O)c3ccc4c(c3)CN(Cc3cncnc3)CC4)cc(C(F)(F)F)c2)CC1 | > 10 | > 10 | > 10 | > 10 | – |
| CN1CCN(Cc2cc(NC(=O)c3ccc4c(c3)CN(c3cncnc3)CC4)cc(C(F)(F)F)c2)CC1 | – | > 10 | – | – | – |
| C[C@H]1CN(c2cncnc2)Cc2cc(C(=O)Nc3cc(CN4CCCN(C)CC4)cc(C(F)(F)F)c3)ccc21 | 0.0066 | > 10 | 8.1 | 0.255 | Activity (Mus musculus [4]): Active; Activity (Mus musculus [5]): Dose-dependent effect; Activity (Mus musculus [6]): Dose-dependent effect; Activity [7]: Active; Activity (Mus musculus [8]): Active; Kd [9]: 0.0022 µM; inhibition [10]: 99.9%; inhibition (Peritoneal macrophage [11]): Dose-dependent effect; Activity [12]: Active; inhibition (Peritoneal macrophage [13]): Dose-dependent effect |
| CN1CCN(Cc2cc(NC(=O)c3ccc4c(c3)CN(c3ccncn3)CC4)cc(C(F)(F)F)c2)CC1 | > 10 | > 10 | > 10 | > 10 | – |
| CC1CN(c2cncnc2)Cc2cc(C(=O)Nc3cc(N4CCN(C)CC4)cc(C(F)(F)F)c3)ccc21 (racemic) | – | > 10 | > 10 | 2.1 | – |
| CCc1cc(CN2CCN(C)CC2)cc(NC(=O)c2ccc3c(c2)CN(c2cncnc2)CC3C)c1 (racemic) | – | > 10 | > 10 | – | – |
| CC1CN(c2cncnc2)Cc2cc(C(=O)Nc3cc(CN4CCN(C)CC4)cc(C4CC4)c3)ccc21 (racemic) | – | > 10 | 9.9 | – | – |
| CC1CN(c2cncnc2)Cc2cc(C(=O)Nc3cc(CN4CCSCC4)cc(C(F)(F)F)c3)ccc21 (racemic) | – | > 10 | > 10 | – | – |
| CC1CN(c2cncnc2)Cc2cc(C(=O)Nc3cc(CN4CCCC4)cc(C(F)(F)F)c3)ccc21 (racemic) | – | > 10 | > 10 | 2.6 | – |

| Structure (SMILES) | IC50 [1] [µM] | IC50 [2] [µM] | IC50 (Bcr/Abl fusion protein) [µM] | IC50 [3] [µM] | other results |
| --- | --- | --- | --- | --- | --- |
| CC1CN(c2cncnc2)Cc2cc(C(=O)Nc3cc(CN4CCN(C)CC4)cc(-c4ccccc4)c3)ccc21 (racemic) | – | > 10 | 10 | – | – |
| CC1CN(c2cncnc2)Cc2cc(C(=O)Nc3cc(CN4CCCN(C)CC4)cc(C(F)(F)F)c3)ccc21 (racemic) | – | > 10 | > 10 | – | – |
| CC1CN(c2cncnc2)Cc2cc(C(=O)Nc3cc(CN4CCN(C)CC4)cc(C(C)(C)C)c3)ccc21 (racemic) | – | > 10 | 4.3 | – | – |
| CC1CN(c2cncnc2)Cc2cc(C(=O)Nc3cc(CN4CCN(C)CC4)cc(C4CCCCC4)c3)ccc21 (racemic) | 0.123 | > 10 | > 10 | – | – |
| CC1CN(c2cncnc2)Cc2cc(C(=O)Nc3cccc(CN4CCN(C)CC4)c3)ccc21 (racemic) | > 10 | > 10 | > 10 | > 10 | – |
| CC1CN(c2cncnc2)Cc2cc(C(=O)Nc3cccc(C(F)(F)F)c3)ccc21 (racemic) | – | > 10 | > 10 | – | – |
| CC1CN(c2cncnc2)Cc2cc(C(=O)Nc3cc(CN(C)C)cc(C(F)(F)F)c3)ccc21 (racemic) | – | > 10 | > 10 | – | – |
| CC1CN(c2cncnc2)Cc2cc(C(=O)Nc3cc(CN4CCN(C)CC4)cc(C(F)(F)F)c3)ccc21 (racemic) | – | > 10 | – | – | – |
| CC1CN(c2cncnc2)Cc2cc(C(=O)Nc3cc(CN4CCCCC4)cc(C(F)(F)F)c3)ccc21 (racemic) | – | > 10 | > 10 | – | – |
| CC1CN(c2cncnc2)Cc2cc(C(=O)Nc3ccc(CN4CCN(C)CC4)c(C(F)(F)F)c3)ccc21 (racemic) | – | > 10 | 0.547 | 0.354 | – |
| CC(C)c1cc(CN2CCN(C)CC2)cc(NC(=O)c2ccc3c(c2)CN(c2cncnc2)CC3C)c1 (racemic) | 0.0499 | > 10 | 8.7 | 0.682 | – |
| CC1Cc2ccc(C(=O)Nc3cc(CN4CCN(C)CC4)cc(C(F)(F)F)c3)cc2CN1c1cncnc1 (racemic) | – | > 10 | > 10 | – | – |
| CC1CN(c2cncnc2)Cc2cc(C(=O)Nc3cc(CCN4CCN(C)CC4)cc(C(F)(F)F)c3)ccc21 (racemic) | 0.0807 | > 10 | > 10 | 1.5 | – |
| CC1CN(c2cncnc2)Cc2cc(C(=O)Nc3cc(CN4CCN(C5CCCCC5)CC4)cc(C(F)(F)F)c3)ccc21 (racemic) | – | > 10 | > 10 | 0.846 | – |
| CC1CN(c2cncnc2)Cc2cc(NC(=O)Nc3cc(CN4CCN(C)CC4)cc(C(F)(F)F)c3)ccc21 (racemic) | > 10 | > 10 | > 10 | > 10 | – |
